Literature values in patent US20220288212A1, “FULLERENE P[…] AND METHODS” (Sinapu LLC, priority 2021, published 2022).

What was measured:
[1] = minimum of from 2.5 to 3 grams of EGCG ingested per day
[2] = room temperature

## O=C(O[C@@H]1Cc2c(O)cc(O)cc2O[C@@H]1c1cc(O)c(O)c(O)c1)c1cc(O)c(O)c(O)c1 [EGCG, epigallocatechin gallate]
[1]
  blood serum concentration: 100 to 1000 nM
[2]
  maximum solubility in water: 92 grams per liter
